According to PubChem BioAssay AID2060895 (Molecular Pharmacology Branch, DTP, NCI, 2025):

Test system: PDC 899932-113-R3-J6 complex spheroid viability
Assay: Anticancer human tumor 899932-113-R3-J6-PDC patient-derived melanoma cell line growth inhibition [RAS]
Settings: for IC50: curve of first compound; for viability, T/C: stronger effect = lower value
Description: RAS pathway inhibitors in Combinations in Complex Spheroids
A high-throughput screen of multi-cell type tumor spheroids was designed to identify active combinations of RAS pathway inhibitors and targeted small molecules. Complex spheroids include a stromal component modeled by human endothelial cells (HUVEC) and fibroblasts modeled by human mesenchymal stem cells (MSCs). The concentration ranges selected for each drug and investigational agent were based upon clinically achievable concentrations if the clinical Cmax of the agent was known.
Compounds. The drugs and investigational agents: abemaciclib (NSC768073), cobimetinib (NSC768068), divarasib (GDC6063, NSC841802), docetaxel (NSC628503), GDC-1971 (RLY-1971, NSC841576), gemcitabine (NSC613327), inavolisib (NSC800729), ipatasertib (NSC767898), KB-0742 (NSC834161), MRTX-1133 (NSC836407), osimertinib (NSC779217), RMC-4630 (NSC839698), RMC-6236 (NSC851965), RMC-6291 (NSC852671), Ro-3306 (NSC812927), sapanisertib (NSC764658), SN-38 (NSC673596), staurosporine (NSC755774), SY5609 (NSC837396), and tovorafenib (DAY101, NSC766906), were obtained from the National Cancer Institute (NCI) Developmental Therapeutics Program Chemical Repository. The FDA-approved anticancer drug set is available from the NCI Developmental Therapeutics Program. […] The stock solutions were prepared in dimethyl sulfoxide (DMSO, Sigma-Aldrich, St. Louis, MO, cat. D2650) at 800-fold the tested concentration and stored at -70 degrees C prior to their use. All drugs and investigational agents were tested over a range starting from a high concentration at or near the clinical Cmax and decreasing in half-log increments. If the clinical Cmax for an agent had not been determined, the highest concentration tested was 10 microM.
Cell Culture. All cells were maintained in an incubator at 37 degrees C and 5% CO2 with 95% humidity. The PDC lines were cultured according to standard operating procedures established by the NCI PDMR. All PDCs were thawed and cultured in Matrigel-coated flasks prepared with a working solution of 1X Ham's F-12 nutrient mix, without supplementation (Invitrogen, Waltham, MA, cat. 11765054), 100 U/mL penicillin-streptomycin (Invitrogen, cat. 15140122), and 2.5% Matrigel (Corning Inc., Corning, NY, cat. 354248) for the first three passages. The 362531-283-R-J2-PDC and 782815-120-R-J1-PDC lines were cultured in 6C/Colon 1B media, which includes advanced DMEM/F-12 (Thermo Fisher Scientific, cat. 12634028), 10 mM HEPES (Thermo Fisher Scientific, cat. 15630080), 1X GlutaMAX supplement (Thermo Fisher Scientific, cat. 35050061), 0.1 mg/mL primocin (InvivoGen, San Diego, CA, cat. ant-pm-2), 10% defined fetal bovine serum, heat inactivated (HyClone Laboratories Inc., Logan, UT, cat. SH30070.03HI), 50% L-WRN conditioned media (ATCC, cat. CRL-3276), 1.25 mM N-Acetyl-L-cysteine (Sigma-Aldrich, cat. A9165), 10 mM nicotinamide (Sigma-Aldrich, cat. N0636), 1X B-27 supplement (Thermo Fisher Scientific, cat. 17504044), 1X N-2 supplement (Thermo Fisher Scientific, cat. 17502048), 50 ng/mL human EGF (Thermo Fisher Scientific, cat. PHG0311), and 10 microM Y-27632 dihydrochloride (Tocris Bioscience, cat. 1254). The K12877-001-R-J1-PDC line was cultured in 6I media, which includes all 6C/Colon 1B media plus 10 ng/mL human FGF-10 (PeproTech, cat. 100-26), 1 ng/mL human FGF-2 (PeproTech, cat. 100-18B), 1 µM prostaglandin E2 (Tocris Bioscience, cat. 2296), […] hydrocortisone (Sigma-Aldrich, cat. H4001), and […] bovine insulin (Sigma-Aldrich, cat. I6634). The K86415-001-R-J1-PDC line was cultured in 6D media, which includes all 6C/Colon 1B media components minus the L-WRN conditioned media. The 485176-168-R4-J1-PDC was cultured in PANC media, which includes all 6C/Colon 1B media plus 100 ng/mL human FGF-10 (PeproTech, cat. 100-26), 500 nM SB-431542 (Selleckchem, cat. S1067), and 10 nM gastrin (Tocris Bioscience, cat. 3006). […]
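Wherever viability, T/C is given: spheroids exposed to agents for seven days before readout; 100% = DMSO vehicle control wells.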

CCc1c2c(nc3ccc(O)cc13)-c1cc3c(c(=O)n1C2)COC(=O)[C@]3(O)CC + C=CC(=O)N1CCN(c2nc(OCC3CCCN3C)nc3c(F)c(-c4nc(N)cc(C)c4C(F)(F)F)c(Cl)cc23)C(C)C1 gave an IC50 (second compound 0.00316 µM) of 19.6 nM, an IC50 (second compound 0.01 µM) of 24.3 nM and an IC50 (second compound 0.0316 µM) of 33.1 nM. For the same compound, the IC50 (second compound 0.1 µM) was 30.3 nM, the IC50 (second compound 0.316 µM) was 29.4 nM and the IC50 (second compound 1 µM) was 31.8 nM. For the same compound, the viability, T/C (second compound 0.00316 µM, first compound 0.000949 µM) was 89.8%, the viability, T/C (second compound 0.00316 µM, first compound 0.003 µM) was 65.9% and the viability, T/C (second compound 0.00316 µM, first compound 0.00949 µM) was 57.6%. It also gave a viability, T/C (second compound 0.00316 µM, first compound 0.03 µM) of 48.6%, a viability, T/C (second compound 0.00316 µM, first compound 0.0949 µM) of 39.2% and a viability, T/C (second compound 0.00316 µM, first compound 0.3 µM) of 36%. For the same compound, the viability, T/C (second compound 0.01 µM, first compound 0.000949 µM) was 92.8%, the viability, T/C (second compound 0.01 µM, first compound 0.003 µM) was 67.4% and the viability, T/C (second compound 0.01 µM, first compound 0.00949 µM) was 59.2%. The viability, T/C (second compound 0.01 µM, first compound 0.03 µM) was 50.2%, the viability, T/C (second compound 0.01 µM, first compound 0.0949 µM) was 43% and the viability, T/C (second compound 0.01 µM, first compound 0.3 µM) was 36.4%. It also gave a viability, T/C (second compound 0.0316 µM, first compound 0.000949 µM) of 93.5%, a viability, T/C (second compound 0.0316 µM, first compound 0.003 µM) of 78% and a viability, T/C (second compound 0.0316 µM, first compound 0.00949 µM) of 59.9%. It also gave a viability, T/C (second compound 0.0316 µM, first compound 0.03 µM) of 51%, a viability, T/C (second compound 0.0316 µM, first compound 0.0949 µM) of 43.9% and a viability, T/C (second compound 0.0316 µM, first compound 0.3 µM) of 30.3%. The viability, T/C (second compound 0.1 µM, first compound 0.000949 µM) was 102%, the viability, T/C (second compound 0.1 µM, first compound 0.003 µM) was 69.5% and the viability, T/C (second compound 0.1 µM, first compound 0.00949 µM) was 61.3%. For the same compound, the viability, T/C (second compound 0.1 µM, first compound 0.03 µM) was 55.7%, the viability, T/C (second compound 0.1 µM, first compound 0.0949 µM) was 43.2% and the viability, T/C (second compound 0.1 µM, first compound 0.3 µM) was 38.4%. For the same compound, the viability, T/C (second compound 0.316 µM, first compound 0.000949 µM) was 95.6%, the viability, T/C (second compound 0.316 µM, first compound 0.003 µM) was 71.7% and the viability, T/C (second compound 0.316 µM, first compound 0.00949 µM) was 58.6%. For the same compound, the viability, T/C (second compound 0.316 µM, first compound 0.03 µM) was 54.1%, the viability, T/C (second compound 0.316 µM, first compound 0.0949 µM) was 43% and the viability, T/C (second compound 0.316 µM, first compound 0.3 µM) was 34.4%. It also gave a viability, T/C (second compound 1 µM, first compound 0.000949 µM) of 96.5%, a viability, T/C (second compound 1 µM, first compound 0.003 µM) of 75% and a viability, T/C (second compound 1 µM, first compound 0.00949 µM) of 59.9%. For the same compound, the viability, T/C (second compound 1 µM, first compound 0.03 µM) was 51.7%, the viability, T/C (second compound 1 µM, first compound 0.0949 µM) was 44.6% and the viability, T/C (second compound 1 µM, first compound 0.3 µM) was 34.3%.
C[C@@H](NC(=O)c1ncnc(N)c1Cl)c1ncc(C(=O)Nc2cc(C(F)(F)F)c(Cl)cn2)s1 + CCn1c(-c2cccnc2C(C)OC)c2c3cc(ccc31)N1CCOC(CC(NC(=O)C(C(C)C)N(C)C(=O)C3(F)CCN(C(=O)C#CC(C)(C)N(C)C)CC3)C(=O)N3CCCC(N3)C(=O)OCC(C)(C)C2)C1 gave an IC50 (second compound 0.000949 µM) of 9800 nM, an IC50 (second compound 0.003 µM) of 8890 nM and an IC50 (second compound 0.00949 µM) of 9630 nM. The IC50 (second compound 0.03 µM) was > 10000 nM, the IC50 (second compound 0.0949 µM) was > 10000 nM and the IC50 (second compound 0.3 µM) was > 10000 nM. For the same compound, the viability, T/C (second compound 0.000949 µM, first compound 0.0316 µM) was 117%, the viability, T/C (second compound 0.000949 µM, first compound 0.1 µM) was 129% and the viability, T/C (second compound 0.000949 µM, first compound 0.316 µM) was 141%. The viability, T/C (second compound 0.000949 µM, first compound 1 µM) was 141%, the viability, T/C (second compound 0.000949 µM, first compound 3.16 µM) was 120% and the viability, T/C (second compound 0.000949 µM, first compound 10 µM) was 48.9%. It also gave a viability, T/C (second compound 0.003 µM, first compound 0.0316 µM) of 122%, a viability, T/C (second compound 0.003 µM, first compound 0.1 µM) of 125% and a viability, T/C (second compound 0.003 µM, first compound 0.316 µM) of 137%. It also gave a viability, T/C (second compound 0.003 µM, first compound 1 µM) of 150%, a viability, T/C (second compound 0.003 µM, first compound 3.16 µM) of 119% and a viability, T/C (second compound 0.003 µM, first compound 10 µM) of 42.2%. It also gave a viability, T/C (second compound 0.00949 µM, first compound 0.0316 µM) of 125%, a viability, T/C (second compound 0.00949 µM, first compound 0.1 µM) of 127% and a viability, T/C (second compound 0.00949 µM, first compound 0.316 µM) of 140%. For the same compound, the viability, T/C (second compound 0.00949 µM, first compound 1 µM) was 139%, the viability, T/C (second compound 0.00949 µM, first compound 3.16 µM) was 120% and the viability, T/C (second compound 0.00949 µM, first compound 10 µM) was 47.1%. It also gave a viability, T/C (second compound 0.03 µM, first compound 0.0316 µM) of 121%, a viability, T/C (second compound 0.03 µM, first compound 0.1 µM) of 132% and a viability, T/C (second compound 0.03 µM, first compound 0.316 µM) of 139%. The viability, T/C (second compound 0.03 µM, first compound 1 µM) was 141%, the viability, T/C (second compound 0.03 µM, first compound 3.16 µM) was 130% and the viability, T/C (second compound 0.03 µM, first compound 10 µM) was 52.5%. It also gave a viability, T/C (second compound 0.0949 µM, first compound 0.0316 µM) of 114%, a viability, T/C (second compound 0.0949 µM, first compound 0.1 µM) of 127% and a viability, T/C (second compound 0.0949 µM, first compound 0.316 µM) of 135%. It also gave a viability, T/C (second compound 0.0949 µM, first compound 1 µM) of 138%, a viability, T/C (second compound 0.0949 µM, first compound 3.16 µM) of 120% and a viability, T/C (second compound 0.0949 µM, first compound 10 µM) of 51.6%. It also gave a viability, T/C (second compound 0.3 µM, first compound 0.0316 µM) of 108%, a viability, T/C (second compound 0.3 µM, first compound 0.1 µM) of 118% and a viability, T/C (second compound 0.3 µM, first compound 0.316 µM) of 127%. The viability, T/C (second compound 0.3 µM, first compound 1 µM) was 134%, the viability, T/C (second compound 0.3 µM, first compound 3.16 µM) was 117% and the viability, T/C (second compound 0.3 µM, first compound 10 µM) was 54%.
